The conditions of data set [1]: cited from earlier work.
The conditions of data set [2]: ref Groer et al., 2007; cited from earlier work.
In a further data set the test system is δ-ORs. As to conditions: ref Chiang et al., 2016; Molinari et al., 2010; cited from earlier work.
In a further data set the target is δ-OR (Homo sapiens, UniProt P41143). Nature of the data set: Radioligand binding assay: displacement of [^3H]DPDPE.
The next data set has as its target humanδ-OR / β-arrestin 2 (Homo sapiens, UniProt P41143). Description: β-arrestin 2 recruitment, CHO-humanδ-OR PathHunter cells. Type of data set: cell-based. As to conditions: for efficacy α β-arrestin2: normalized to leu-enkephalin, mean ± SEM. (In general: Activated receptors often draw arrestin, which recruitment assays turn into a signal.)
Data set [3] concerns δ opioid receptors (δ-ORs). As to conditions: synthetic analog of rubiscolin-6; ref Yang et al., 2003b; cited from earlier work.

Results on 8 compounds are retold here after article PMC6421079 (European neuropsychopharmacology : the journal of the …, 2018).

For orientation: Ki means a dissociation constant, usually derived from enzyme kinetics or from competition with a known ligand. One may read the EC50 as the concentration giving half of the maximal effect. Low readings indicate higher potency in that assay, high ones lower potency in that assay.

Like-named read-outs stand apart in the source and are kept apart here. Where no end group is shown, it is not given here.

Chain of humanδ-OR / β-arrestin 2 (P41143 whole entry): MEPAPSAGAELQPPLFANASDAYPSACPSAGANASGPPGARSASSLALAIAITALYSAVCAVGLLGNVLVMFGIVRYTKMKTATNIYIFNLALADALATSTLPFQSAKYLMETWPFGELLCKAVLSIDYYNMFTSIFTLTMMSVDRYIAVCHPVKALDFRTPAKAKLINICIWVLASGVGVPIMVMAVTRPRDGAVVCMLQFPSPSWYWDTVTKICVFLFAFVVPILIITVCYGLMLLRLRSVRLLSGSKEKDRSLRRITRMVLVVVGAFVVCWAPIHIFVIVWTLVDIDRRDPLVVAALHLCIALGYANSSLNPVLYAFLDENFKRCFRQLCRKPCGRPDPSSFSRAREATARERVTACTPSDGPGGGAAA
Chain of δ-OR (P41143 whole entry): as above

As to `C[C@@H](Cc1ccsc1)NC(=O)NC[C@H](Cc1ccc(O)cc1)N(C)C` [PZM21], in data set [1] (ref Manglik et al., 2016), the side effect profile entry is “appear to possess a reduced side effect profile”. With `COc1ccsc1CNCC[C@@]1(c2ccccn2)CCOC2(CCCC2)C1` [TRV130], the side effect profile result in data set [1] (ref DeWire et al., 2013) is reported as “appear to possess a reduced side effect profile”.

With `COC(=O)[C@@H]1C[C@H](OC(=O)c2ccccc2)C(=O)[C@H]2[C@@]1(C)CC[C@H]1C(=O)O[C@H](c3ccoc3)C[C@]21C` [herkinorin], in data set [2], the “G protein bias, in words” value is “G protein-biased”.

DADLE: in the data set on δ-ORs, the “β-arrestin recruitment, in words” value is listed as “strongly recruit β-arrestin”. Take DPDPE: the “β-arrestin recruitment, in words” value with δ-ORs is listed as “strongly recruit β-arrestin”. In the case of YPLDL [Rubiscolin-5], the affinity on δ-OR corresponds to a Ki of 3.16 µM. In addition, on humanδ-OR / β-arrestin 2, the EC50 was 79.4 µM and the “efficacy α β-arrestin2” value was 15±4. Take YPLDLF [Rubiscolin-6]: affinity at δ-OR was put at a Ki of 1 µM. Moreover, on humanδ-OR / β-arrestin 2, a half-maximal response (EC50) required 7.94 µM and the “efficacy α β-arrestin2” value came to 20±3. As for YPLDLV, in data set [3], the “potency and δ-OR selectivity, in words” value is “more potent and δ-OR-selective”.
